Measurements from US12351571B2, “Substituted quinoxaline compounds as inhibitors of FGFR tyrosine kinases” (ARRAY BIOPHARMA INC., priority 2018, dated 2025).

Assays:
[1] = biological target: recombinant human FGFR1 catalytic domain (Homo sapiens (Human), UniProt P11362); assay: FGFR Enzyme Activity Assay (LanthaScreen TR-FRET), FGFR1; assay type: biochemical; details: 15 μM ATP, 20 minutes incubation; read-out: FGFR1 Enz FRET IC50
Method: FGFR1 kinase activity was measured by the Invitrogen LanthaScreen™ Assay technology which directly measures the amount of substrate phosphorylation by Time-resolved fluorescence energy transfer (TR-FRET) using a flourescently-labeled peptide and Europium-labeled antibody. Briefly, 200 pM His-tagged recombinant human FGFR1 catalytic domain (amino acids 308-731) (Life Technologies Cat. No. PR4660A) was incubated with 100 nM Alexa Fluor® 647-Poly-GT Peptide Substrate (Life Technologies Cat. No. PV5836) and 15 μM ATP along with test compound in a buffer consisting of 250 mM HEPES, 25 mM MgCl2, 0.05% TritonX-100, pH 7.5, and 2% DMSO. Compounds were typically prepared in a threefold serial dilution in DMSO and added to the assay to give the appropriate final concentration. After a 20 minutes incubation at 22° C., an equal volume of 2 nM LanthaScreen® Eu-PY20 Antibody (Life Technologies Cat. No. PV5691) and 10 mM EDTA was added to quench the kinase reaction and start the detection reaction. After an additional 60 minute incubation at 22° C., the reaction was measured using a PerkinElmer EnVision multimode plate reader via TR-FRET dual wavelength detection, and the percent of control (POC) calculated using a ratiometric emission factor. 100 POC was determined using no test compounds and 0 POC was determined using no enzyme. The POC values were fit to a 4-parameter logistic curve as a function of the concentration of the compound, and the IC50 value is the point where the curve crosses 50 POC.

[2] = biological target: FGFR1 (Homo sapiens (Human), UniProt P11362); assay: LC/MS FGFR1 kobs assay (covalent modification); assay type: biochemical; details: 500 nM FGFR1, 3 μM compound
Chain of FGFR1 (P11362 458-765): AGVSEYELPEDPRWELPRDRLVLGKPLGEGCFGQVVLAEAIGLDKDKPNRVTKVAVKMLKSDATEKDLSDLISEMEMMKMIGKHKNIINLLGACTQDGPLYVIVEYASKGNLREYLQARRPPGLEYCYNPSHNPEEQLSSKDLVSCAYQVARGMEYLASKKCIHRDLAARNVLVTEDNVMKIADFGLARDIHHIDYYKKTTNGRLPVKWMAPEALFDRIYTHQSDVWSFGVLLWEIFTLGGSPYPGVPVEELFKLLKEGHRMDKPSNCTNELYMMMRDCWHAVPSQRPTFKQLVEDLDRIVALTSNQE
Method: (§1) The LC/MS FGFR1 and FGFR3 kobs assays were conducted as follows. 500 nM FGFR1 (Array BioPharma construct p1702; SEQ ID NO: 1, amino acids 458-765) or FGFR3 (Array BioPharma construct p1700; SEQ ID NO: 5, amino acids 449-759) were incubated with 3 μM compound in 25 mM HEPES (4-(2-hydroxyethyl)-1-piperazineethanesulfonic acid), pH 7.4, 5 mM MgCl2, 150 mM NaCl, 0.5 mM TCEP (tris(2-carboxyethyl) phosphine), and 2% DMSO in a total volume of 20 μL. At each time point, the reaction was quenched with 20 μL of 0.4% formic acid. The extent of protein modification by each compound was determined by LC/MS on an Agilent Technologies 6520 Q-TOF LC/MS. Protein signals were then automatically deconvoluted using Agilent Masshunter software. Deconvoluted mass signals were exported to Tibco Spotfire data analysis program for further processing and normalization.
(§2) Data analysis included five steps. First, the signals for the “DMSO Controls” were analyzed to determine the percent of signal associated with unmodified FGFR1 or FGFR3 at each time point. Next, the percent of the signal associated with the covalent modification was determined. Third, the average nonmodified “DMSO Control” signal was used to normalize the modified protein signals at each time point. The percent of unmodified protein was fit to an exponential decay model where A0 is the Percent Unmodified at the start of the reaction, and kobs is the observed rate constant over the time period.

[3] = biological target: T1, FGFR3 (Homo sapiens (Human), UniProt P22607); assay: FGFR Enzyme Activity Assay (LanthaScreen TR-FRET), FGFR3; assay type: biochemical; details: 25 μM ATP, 10 minute incubation; read-out: FGFR3 Enz FRET IC50
Method: FGFR3 kinase activity was measured by the Invitrogen LanthaScreen™ Assay technology which directly measures the amount of substrate phosphorylation by TR-FRET using a flourescently-labeled peptide and Europium-labeled antibody. Briefly, 750 pM N-terminal GST-HIS6 fusion protein with a 3C cleavage site recombinant human FGFR3 (amino acids R397-T806) (ProQinase Cat. No. 1068-0000-1) was incubated with 100 nM Alexa Fluor® 647-Poly-GT Peptide Substrate (Life Technologies Cat. No. PV5836) and 25 μM ATP along with test compound in a buffer consisting of 250 mM HEPES, 25 mM MgCl2, 0.05% TritonX-100, pH 7.5, and 2% DMSO. Compounds were typically prepared in a threefold serial dilution in DMSO and added to the assay to give the appropriate final concentration. After a 10 minute incubation at 22° C., an equal volume of 2 nM LanthaScreen® Eu-PY20 Antibody (Life Technologies Cat. No. PV5691) and 10 mM EDTA were added to quench the kinase reaction and start the detection reaction. After an additional 60 minute incubation at 22° C., the reaction was measured using a PerkinElmer EnVision multimode plate reader via TR-FRET dual wavelength detection, and the percent of control (POC) calculated using a ratiometric emission factor. 100 POC was determined using no test compounds and 0 POC was determined using no enzyme. The POC values were fit to a 4-parameter logistic curve as a function of the concentration of the compound, and the IC50 value is the point where the curve crosses 50 POC.
Target sequence in this assay (P22607 397-806): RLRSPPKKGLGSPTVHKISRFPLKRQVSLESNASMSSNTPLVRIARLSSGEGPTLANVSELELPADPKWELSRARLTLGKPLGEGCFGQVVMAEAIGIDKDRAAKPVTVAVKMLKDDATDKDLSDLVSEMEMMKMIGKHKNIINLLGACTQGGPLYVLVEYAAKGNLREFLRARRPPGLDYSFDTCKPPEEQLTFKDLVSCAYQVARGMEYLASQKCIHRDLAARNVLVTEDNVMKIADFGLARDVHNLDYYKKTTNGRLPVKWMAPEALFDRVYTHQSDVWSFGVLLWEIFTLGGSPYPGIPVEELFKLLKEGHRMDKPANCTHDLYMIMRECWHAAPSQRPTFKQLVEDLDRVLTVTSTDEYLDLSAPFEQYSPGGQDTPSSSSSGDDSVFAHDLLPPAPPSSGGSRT

[4] = biological target: T1, FGFR3; assay: LC/MS FGFR3 kobs assay (covalent modification); assay type: biochemical; details: 500 nM FGFR3, 3 μM compound
Method: as §1, §2
Target sequence in this assay (P22607 449-759): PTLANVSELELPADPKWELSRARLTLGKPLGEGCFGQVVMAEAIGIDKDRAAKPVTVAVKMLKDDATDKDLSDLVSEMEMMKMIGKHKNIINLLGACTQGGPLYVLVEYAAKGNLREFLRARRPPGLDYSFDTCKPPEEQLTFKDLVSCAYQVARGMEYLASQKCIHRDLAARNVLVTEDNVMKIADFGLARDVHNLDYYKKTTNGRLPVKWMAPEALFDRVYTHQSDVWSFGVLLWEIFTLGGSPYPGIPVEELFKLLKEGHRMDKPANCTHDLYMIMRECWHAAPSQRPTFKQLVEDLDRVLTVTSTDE

[5] = biological target: human wild type FGFR3 (Homo sapiens (Human), UniProt P22607); assay: FGFR3 pERK Cell Assay; assay type: cell-based; details: HEK-293 cells, 1 hour compound, 100 ng/ml human FGF-acidic; maximum concentration 5 μM
Chain of human wild type FGFR3 (P22607 23-806): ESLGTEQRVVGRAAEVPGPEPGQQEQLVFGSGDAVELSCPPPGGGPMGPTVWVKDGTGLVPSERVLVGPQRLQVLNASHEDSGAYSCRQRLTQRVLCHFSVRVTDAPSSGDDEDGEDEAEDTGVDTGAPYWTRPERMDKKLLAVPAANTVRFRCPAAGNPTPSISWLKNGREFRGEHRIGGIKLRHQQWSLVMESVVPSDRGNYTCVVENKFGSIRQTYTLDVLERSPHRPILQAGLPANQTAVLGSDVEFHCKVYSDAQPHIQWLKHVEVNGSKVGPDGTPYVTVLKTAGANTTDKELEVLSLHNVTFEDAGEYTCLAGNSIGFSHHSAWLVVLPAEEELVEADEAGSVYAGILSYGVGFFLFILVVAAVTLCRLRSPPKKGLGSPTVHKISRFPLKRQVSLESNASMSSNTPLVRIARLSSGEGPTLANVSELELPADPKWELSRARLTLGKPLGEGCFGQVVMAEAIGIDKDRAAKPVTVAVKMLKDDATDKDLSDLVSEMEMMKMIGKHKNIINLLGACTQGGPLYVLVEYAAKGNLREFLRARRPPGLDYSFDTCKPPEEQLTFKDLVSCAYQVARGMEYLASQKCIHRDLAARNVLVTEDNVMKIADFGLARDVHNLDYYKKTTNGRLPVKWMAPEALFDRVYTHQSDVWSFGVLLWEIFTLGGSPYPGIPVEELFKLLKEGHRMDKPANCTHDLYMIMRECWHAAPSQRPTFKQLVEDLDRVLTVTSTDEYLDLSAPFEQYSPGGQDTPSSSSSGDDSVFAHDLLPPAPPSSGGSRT
Method: HEK-293 cells transfected with dox-inducible human wild type FGFR3 (SEQ ID NO: 5) were plated in a collagen or poly-D-lysine coated 96 well flat bottom plates at 4×10^5 cells/well in complete DMEM medium containing 10% FBS and 1 μg/ml doxycycline and allowed to attach for 24 h at 37° C., 5% CO2. Cells were treated with compound using 1:3 serial dilutions with a maximum final concentration of 5 μM. Compound was incubated on cells for 1 hour at 37° C., 5% CO2. Cells were then stimulated with a final concentration of 100 ng/ml human FGF-acidic (R&D Systems Cat number 232-FA/CF) for 5 minutes at 37° C., 5% CO2. Medium was removed, and cells were lysed with lysis buffer containing phosphatase and protease inhibitors. Phospho ERK1/2 was measured using the Meso Scale Discovery sandwich assay (Meso Scale Discovery cat. no. K151DWD). The assay captures phospho ERK1/2 and detects with a sulfo-tagged total ERK1/2 antibody. The chemiluminescent signal was read on the Sector Imager Plate reader. 100 POC was determined using no test compounds and 0 POC was determined using a control compound. The POC values were fit to a 4-parameter logistic curve as a function of the concentration of the compound, and the IC50 value is the point where the curve crosses 50 POC.

Chain of recombinant human FGFR1 catalytic domain (P11362 other isoform, or with tags, fused parts or gaps): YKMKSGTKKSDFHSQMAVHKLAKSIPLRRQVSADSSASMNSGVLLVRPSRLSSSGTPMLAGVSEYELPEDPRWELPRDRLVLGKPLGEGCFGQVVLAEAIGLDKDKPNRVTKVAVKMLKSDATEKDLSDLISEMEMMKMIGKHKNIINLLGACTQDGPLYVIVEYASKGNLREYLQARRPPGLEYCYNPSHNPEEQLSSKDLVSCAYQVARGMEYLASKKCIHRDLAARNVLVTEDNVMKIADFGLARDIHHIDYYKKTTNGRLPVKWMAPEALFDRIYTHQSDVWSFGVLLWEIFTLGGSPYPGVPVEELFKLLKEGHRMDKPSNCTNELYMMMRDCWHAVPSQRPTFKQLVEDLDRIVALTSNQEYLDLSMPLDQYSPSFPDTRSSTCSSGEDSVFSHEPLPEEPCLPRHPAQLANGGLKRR

SMILES | IC50 [1] | FGFR1 Enz kobs [2] | IC50 [3] | FGFR3 Enz kobs [4] | IC50 [5]
C=CC(=O)N1CC(F)(C(=O)N2CCC(n3cc(-c4cnc5ccc(Nc6cc(OC)cc(OC)c6)cc5n4)cn3)CC2)C1 [Example 4, 1-(3-(4-(4-(7-((3,5-dimethoxyphenyl)amino)-quinoxalin-2-yl)-1H-pyrazol-1-yl)piperidine-1-carbonyl)-3-fluoro-azetidin-1-yl)prop-2-en-1-one] | 89 nM | 0.00632 min⁻¹ | 10 nM | 0.03901 min⁻¹ | 20 nM
COc1cc(Nc2ccc3ncc(-c4cnn(C5CCN(C(=O)C6(C#N)CN(C(=O)/C=C/CN(C)C)C6)CC5)c4)nc3c2)cc(OC)c1 [Example 11, (E)-3-(4-(4-(7-((3,5-dimethoxyphenyl)amino)-quinoxalin-2-yl)-1H-pyrazol-1-yl)piperidine-1-carbonyl)-1-(4-(dimethyl-amino)but-2-enoyl)-azetidine-3-carbonitrile] | 44 nM | 0.01822 min⁻¹ | 7 nM | 0.1473 min⁻¹ | 19 nM
C=CC(=O)N1CC(O)(C(=O)N2CCC(n3cc(-c4cnc5ccc(Nc6cc(OC)cc(OC)c6)cc5n4)cn3)CC2)C1 [Example 26, 1-(3-(4-(4-(7-((3,5-dimethoxyphenyl)amino)quinoxalin-2-yl)-1H-pyrazol-1-yl)piperidine-1-carbonyl)-3-hydroxyazetidin-1-yl)prop-2-en-1-one] | 118 nM | 0.00288 min⁻¹ | 14 nM | 0.01414 min⁻¹ | 153 nM
C=CC(=O)N1CC(C(=O)N2CCN(c3ccc(-c4cnc5ccc(Nc6cc(OC)cc(OC)c6)cc5n4)cn3)CC2)C1 [Example 5, 1-(3-(4-(5-(7-((3,5-dimethoxyphenyl)amino)-quinoxalin-2-yl)pyridin-2-yl)piperazine-1-carbonyl)azetidin-1-yl)-prop-2-en-1-one] | 448 nM | 0.0011 min⁻¹ | 272 nM | 0.01486 min⁻¹ | 317 nM
C=CC(=O)N1CC(F)(C(=O)N2CCN(c3ccc(-c4cnc5ccc(Nc6cc(OC)cc(OC)c6)cc5n4)cn3)CC2)C1 [Example 8, 1-(3-(4-(5-(7-((3,5-dimethoxyphenyl)amino)-quinoxalin-2-yl)pyridin-2-yl)piperazine-1-carbonyl)-3-fluoroazetidin-1-yl)-prop-2-en-1-one] | 831 nM | 0.00384 min⁻¹ | 631 nM | 0.06319 min⁻¹ | 154 nM

Further lines, results first:

IC50 [1] | FGFR1 Enz kobs [2] | IC50 [3] | FGFR3 Enz kobs [4] | IC50 [5] | SMILES
295 nM | 0.00106 min⁻¹ | 37 nM | 0.00664 min⁻¹ | 390 nM | C=CC(=O)N1CC(C(=O)N2CC[C@@H](n3cc(-c4cnc5ccc(Nc6cc(OC)cc(OC)c6)cc5n4)cn3)C2)C1 [Example 21, (R)-1-(3-(3-(4-(7-((3,5-dimethoxyphenyl)amino)-quinoxalin-2-yl)-1H-pyrazol-1-yl)pyrrolidine-1-carbonyl)azetidin-1-yl)prop-2-en-1-one]
376 nM | 0.00842 min⁻¹ | 48 nM | 0.08024 min⁻¹ | 61 nM | COc1cc(Nc2ccc3ncc(-c4cnn(C5CCN(C(=O)C6(F)CN(C(=O)/C=C/CN(C)C)C6)CC5)c4C)nc3c2)cc(OC)c1 [Example 17, (E)-1-(3-(4-(4-(7-((3,5-dimethoxyphenyl)amino)-quinoxalin-2-yl)-5-methyl-1H-pyrazol-1-yl)piperi-dine-1-carbonyl)-3-fluoroazetidin-1-yl)-4-(dimethylamino)but-2-en-1-one]
21 nM | 0.01569 min⁻¹ | 6 nM | 0.078 min⁻¹ | 8 nM | C#CCN(c1cc(OC)cc(OC)c1)c1ccc2ncc(-c3cnn(C4CCN(C(=O)C5(F)CN(C(=O)/C=C/CN(C)C)C5)CC4)c3)nc2c1 [Example 28, (E)-1-(3-(4-(4-(7-((3,5-dimethoxyphenyl)(prop-2-yn-1-yl)amino)quinoxalin-2-yl)-1H-pyrazol-1-yl)piperidine-1-carbonyl)-3-fluoroazetidin-1-yl)-4-(dimethylamino)but-2-en-1-one]
229 nM | 0.00223 min⁻¹ | 24 nM | 0.01322 min⁻¹ | 19 nM | C=CC(=O)N1CC(OC)(C(=O)N2CCC(n3cc(-c4cnc5ccc(Nc6cc(OC)cc(OC)c6)cc5n4)cn3)CC2)C1 [Example 24, 1-(3-(4-(4-(7-((3,5-dimethoxyphenyl)amino)-quinoxalin-2-yl)-1H-pyrazol-1-yl)piperidine-1-carbonyl)-3-methoxy-azetidin-1-yl)prop-2-en-1-one]
5000 nM | 0.00386 min⁻¹ | 972 nM | 0.07588 min⁻¹ | 699 nM | COc1cc(Nc2ccc3ncc(-c4c(C)nn(C5CCN(C(=O)C6(F)CN(C(=O)/C=C/CN(C)C)C6)CC5)c4C)nc3c2)cc(OC)c1 [Example 23, (E)-1-(3-(4-(4-(7-((3,5-dimethoxyphenyl)amino)-quinoxalin-2-yl)-3,5-dimethyl-1H-pyrazol-1-yl)piperidine-1-carbonyl)-3-fluoroazetidin-1-yl)-4-(dimethylamino)but-2-en-1-one]
29 nM | 0.00278 min⁻¹ | 23 nM | 0.02139 min⁻¹ | 184 nM | COc1cc(Nc2ccc3ncc(-c4cnn(C5CCN(C(=O)C6CN(C(=O)/C=C/CN(C)C)C6)CC5)c4)nc3c2)cc(OC)c1 [Example 9, (E)-1-(3-(4-(4-(7-((3,5-dimethoxyphenyl)amino)-quinoxalin-2-yl)-1H-pyrazol-1-yl)piperidine-1-carbonyl)azetidin-1-yl)-4-(dimethylamino)but-2-en-1-one]
